Type in all cases: functional
Test [1] concerns Human gammaherpesvirus 4. In words: In vitro ability of compound to induce Epstein-Barr virus early antigen (EBV-EA) activity at 10 e-5 M concentration.
The subject of test [2] is Human gammaherpesvirus 4. As to the kind of experiment: In vitro ability of compound to induce Epstein-Barr virus early antigen (EBV-EA) activity at 10 e-6 M concentration.
Test [3] relates to Human gammaherpesvirus 4. In words: In vitro ability of compound to induce Epstein-Barr virus early antigen (EBV-EA) activity at 10 e-7 M concentration.

Turning to `Cc1ccc2[nH]cc3c2c1N(C)[C@@H](C(C)C)C(=O)N[C@H](CO)C3`, the Activity is listed as 9.4% in test [1], 1.4% in test [2] and 0.3% in test [3].

For the molecule `Cc1cc2ccc3[nH]cc4c3c2n1[C@@H](C(C)C)C(=O)N[C@H](CO)C4`, the Activity in test [1] is 36.1%; in test [2], 34%; in test [3], 12.7%.

Regarding `CC(C)[C@H]1C(=O)N[C@H](CO)Cc2c[nH]c3ccc4c(c23)N1[C@@H](C)C4`, the Activity in test [1] is 17.8%; in test [2], 0.8%; in test [3], 0.2%.

In the case of `CC(C)[C@H]1C(=O)N[C@H](CO)Cc2c[nH]c3ccc4c(c23)N1[C@H](C)C4`, the Activity in test [1] is listed as 16%; in test [2], 14.1%; in test [3] it was 1.2%.

Turning to `CC(C)[C@H]1C(=O)N[C@H](CO)Cc2c[nH]c3cccc(c23)N1C` [INDOLACTUM], the results for the Activity in test [1], in test [2] and in test [3] were 35%, 19% and 7.7%, respectively.

Source of the values: ChEMBL document CHEMBL1150999, “Synthesis and biological activities of new conformationally fixed analogues of ()-indolactam-V, the core structure of tumor-promoting teleocidins” (1995).
